Experimental data published in PMC12750995, “Conformational Dynamics in the Cell Membrane Interactions of Bispecific Targeted Degrader Therapeutics” (Journal of Medicinal Chemistry, 2025).

Legend:
[1] = tested on: HEK293 cell homogenate; experiment: Equilibrium dialysis binding to HEK293 cell homogenate (fraction unbound); format: in vitro ADME; conditions: for fu,hom mass balance: equilibrium dialysis, 0.1 μM; for cell homogenate binding (bound-to-unbound concentration ratio) compared with matched compound: Figure 6G, 11 vs 9, 8 vs 14, 9 vs 16; for fold higher bound-to-unbound concentration ratio than compound 9: comparator compound 9
Method: (§1) The unbound fraction of a selected series of PROTACs was determined through equilibrium dialysis against the cell homogenate. HEK293 cells (ATCC, Manassas, VA) were grown in Dulbecco’s modified Eagle’s medium (DMEM) supplemented with 10% fetal bovine serum (FBS) at 37 °C, 95% relative humidity, and 5% CO2. Cell pellets were harvested using 0.05% trypsin and centrifuged at 260g for 5 min. The cells were resuspended in Dulbecco’s phosphate buffer (DPBS), counted using a Luna II cell counter (Logos Biosystems, Anyang, South Korea) and centrifuged at 260g. The supernatant was discarded, and cell pellets were stored at −80 °C prior to cell homogenate preparation. On the day of the experiment, cell pellets were thawed and resuspended in Hank’s balanced salt solution (HBSS) buffered with 20 mM HEPES (pH 7.4) to a concentration of 10 × 10^6 cells/mL. The cell suspension was homogenized using ultrasonication for 10 s at 20% intensity while kept on ice.
(§2) Compound stability was assessed by adding the compound-spiked cell homogenate to an empty well in the dialysis cassette. At the end of the experiment, these concentrations were compared to identical control samples stored at 4 °C. Mass balance was calculated at the end of each experiment. Further, in all wells, two control compounds (atorvastatin and lopinavir) were included to ensure that the assay plate was functional. All compounds were tested in triplicate in one experiment. Compound 2 was only detected on the cell homogenate side, and thus, the concentration on the buffer side was set to half of the lower limit of quantification to allow calculation of an approximate cell homogenate binding.
(§3) Final samples were matrix matched by taking 1 part sample and 1 part blank cell homogenate or buffer. Proteins were precipitated using 1 part matrix matched sample and 3 parts acetonitrile supplemented with 0.3% formic acid (FA) and 5 nM verapamil (internal standard), and this was diluted 1:1 with Milli-Q prior to centrifugation at 2500g for 20 min. Compound concentrations in the supernatant were quantified using a reversed phase system with a Waters Acquity UPLC HSS T3 column (50 × 2.1 mm, 1.8 μm) in an Aquity UPLC connected to a Xevo TQ-XS mass spectrometer (Waters Corp., Milford, MA). The chromatographic run was done using solvent A (0.1% FA in Milli-Q) and solvent B (0.1% FA in acetonitrile Optima LC/MS grade (Fisher Scientific)) with isocratic conditions between 0 and 0.3 min (99.8% solvent A and 0.2% solvent B), a linear gradient between 0.3 and 1.3 min (from 0.2% to 95% solvent B), isocratic conditions between 1.3 and 1.8 min (95% solvent B), and equilibration back to start conditions between 1.8 and 2.3 min. Mass transitions, cone voltages, and collision energies can be found in Table S4.

[2] = as above; format: in vitro ADME; conditions: human, pH 7.4; fraction unbound in HEK293 cell homogenate, 10 × 10^6 cells/mL, 0.1 μM, 4 h, 37 °C; read-out: fu,hom
Method: as §1, §2, §3

[3] = Caco-2 A-B passive permeability with preincubation, transporter-inhibited; format: in vitro ADME; conditions: human, Caco-2, with 50 μM quinidine, 30 μM benzbromarone, 20 μM sulfasalazine; Figure 3A grouping; read-out: Passive Caco-2 cell permeability group (high, moderate or low)
Method: (§4) Transepithelial transport of the compounds through a Caco-2 monolayer (ATCC, HTB-37) was determined in 14–18 days old monolayers in Costar 24-well cell culture cluster plates (polycarbonate membrane, 0.4 μm pore size). Chamber volumes were 200 and 800 μL on the apical and basolateral sides of the cell monolayers, respectively, and all incubations were performed with prewarmed buffers in an orbital shaking incubator at 480 rpm and 37 °C. Prior to the assay, cells were washed with HBSS supplemented with 25 mM HEPES (HBSS-HEPES), pH 7.4, to remove the culture medium. After 15 min of equilibration, the transepithelial electrical resistance (TEER) was determined to assess acceptance of the cell plates into the assay. A second measurement and a lucifer yellow leakage determination was carried out after performing all the transport experiments to monitor integrity of the cell monolayers throughout the study.
(§5) Before the permeability study, to minimize nonspecific binding of PROTACs to the cells and plates, the cells were preincubated with 10 μM compound solution on the apical (donor) side for 1 h, analogous to Muschong et al. Then, cells were washed twice with HBSS-MES pH 6.5 containing 1% BSA. Then, permeability in the absorptive direction (A–B, apical-to-basolateral) was studied over 120 min at a 10 μM test compound concentration. The compound solutions were freshly prepared from DMSO stock solutions diluted into HBSS supplemented with 25 mM MES, pH 6.5, containing efflux inhibitors (50 μM quinidine, 30 μM benzbromarone, and 20 μM sulfasalazine); the final solvent concentration was always 0.5%.
(§6) Samples from the donor side (10 μL) were drawn immediately after the addition of the test compound and after 45 and 120 min. The donor samples were diluted 1:10 in HBSS. From the receiver compartment, an amount of 100 μL was withdrawn after 45 and 120 min and replaced with fresh HBSS-HEPES, pH 7.4.
(§7) Upon completion of the study, all samples were quenched with 300 μL of acetonitrile and analyzed subsequently using UPLC/MS/MS. The permeability was determined as the appearance rate of the compound on the receiver side, in relation to donor concentration, according to eq 4 Papp=dQ/[(dt)(T)]×A/D where dQ/[(dt)(T)] is the slope of the permeation profile across the Caco-2 cell monolayers, A is the surface area of the Transwell insert (0.33 cm^2), and D is the concentration on the donor side. Following the permeability experiments, recovery from the donor and receiver compartments was calculated using eq 5 recovery(%)(0−120min)=CR120×VR+CR45×0.1+CD45×0.01+CD120×VD/D0×VD×100

[4] = tested on: Caco-2 monolayer; experiment: as above; format: in vitro ADME; conditions: recovery from donor and receiver compartments, 0-120 min
Method: as §4, §5, §6, §7

[5] = in vitro; conditions: human, pH 7.4, n = 3
Method: Binding to the cell homogenate was determined at 0.1 μM for all compounds. A Rapid Equilibrium Dialysis device (Thermo Fisher, Waltham, Massachusetts) was used to dialyze the samples by adding 200 μL of the compound-spiked cell homogenate to one chamber and 350 μL of HBSS/HEPES to the other chamber. The cassette was incubated on an Eppendorf ThermoMixer C (Hamburg, Germany) at 900 rpm for 4 h at 37 °C.

Papp A→B at 120 min, 10 μM [3] [×10⁻⁶ cm/s] | fraction unbound at 4 h, 0.1 μM ([5]; HEK293 cell homogenate) | SMILES | further results
0.5 to 10 | – | CCCOc1cccc(Oc2cc3c(cc2NS(=O)(=O)c2cccc(C(=O)NCCOCCOCCOCC(=O)N[C@@H](C(=O)N4C[C@@H](O)C[C@@H]4C(=O)NCc4ccc(-c5scnc5C)cc4)C(C)(C)C)c2)n(C)c(=O)n3C)c1 [Compound 4] | fu,hom mass balance ([1]; HEK293 cell homogenate): 66%; fraction unbound at 4 h, 0.1 μM [2]: 0.2; Papp Recovery (%) (0-120 min) [4]: 78%
0.5 to 10 | 0.242 | Cc1ncsc1-c1ccc(CNC(=O)[C@H]2C[C@H](O)CN2C(=O)[C@@H](NC(=O)COCCOCCOCCNC(=O)C[C@@H]2N=C(c3ccc(Cl)cc3)c3c(sc(C)c3C)-n3c(C)nnc32)C(C)(C)C)cc1 [Compound 6] | –
– | 0.357 | Cc1sc2c(c1C)C(c1ccc(Cl)cc1)=N[C@@H](CC(=O)N1CCC(Oc3cccc4c3C(=O)N(C3CCC(=O)NC3=O)C4=O)C1)c1nnc(C)n1-2 (stereo partly drawn) [Compound 17, 4-((1-(2-((6S)-4-(4-Chlorophenyl)-2,3,9-trimethyl-6H-thieno[3,2-f][1,2,4]triazolo[4,3-a][1,4]diazepin-6-yl)acetyl)pyrrolidin-3-yl)oxy)-2-(2,6-dioxopiperidin-3-yl)isoindoline-1,3-dione] | –
– | 0.139 | Cc1ncsc1-c1ccc(CNC(=O)[C@@H]2C[C@@H](O)CN2C(=O)[C@@H](NC(=O)CCCCNC(=O)C[C@@H]2N=C(c3ccc(Cl)cc3)c3c(sc(C)c3C)-n3c(C)nnc32)C(C)(C)C)cc1 [Compound 11, (2S,4R)-1-((2S)-2-(5-(2-((6S)-4-(4-Chlorophenyl)-2,3,9-trimethyl-6H-thieno[3,2-f][1,2,4]triazolo[4,3-a][1,4]diazepin-6-yl)acetamido)pentanamido)-3,3-dimethylbutanoyl)-4-hydroxy-N-(4-(4-methylthiazol-5-yl)benzyl)pyrrolidine-2-carboxamide] | cell homogenate binding (bound-to-unbound concentration ratio) compared with matched compound [1]: higher cell homogenate binding than the CRBN-binding 9; fold higher bound-to-unbound concentration ratio than compound 9 ([1]; HEK293 cell homogenate): 3 fold
– | 0.432 | Cc1sc2c(c1C)C(c1ccc(Cl)cc1)=N[C@@H](CC(=O)NCCOCCOCCNC(=O)COc1cccc3c1C(=O)N(C1CCC(=O)NC1=O)C3=O)c1nnc(C)n1-2 (stereo partly drawn) [Compound 14, 2-((6S)-4-(4-Chlorophenyl)-2,3,9-trimethyl-6H-thieno[3,2-f][1,2,4]triazolo[4,3-a][1,4]diazepin-6-yl)-N-(2-(2-(2-(2-((2-(2,6-dioxopiperidin-3-yl)-1,3-dioxoisoindolin-4-yl)oxy)acetamido)ethoxy)ethoxy)ethyl)acetamide] | –
< 0.5 | – | COc1cc(-c2cn(C)c(=O)c3cnccc23)cc(OC)c1CN(C)CC(=O)NCCOCCOCCNc1cccc2c1C(=O)N(C1CCC(=O)NC1=O)C2=O (stereo not shown) [Compound 10] | fold lower bound-to-unbound concentration ratio (membrane binding) than compound 7 ([1]; HEK293 cell homogenate, comparator compound 7): 5.3 fold; fraction unbound at 4 h, 0.1 μM ([5]; tissue homogenate): 0.557
> 10 | 0.19 | COc1cc(-c2cn(C)c(=O)c3cnccc23)cc(OC)c1CN(C)CC(=O)NCCCCCCCCNc1cccc2c1C(=O)N(C1CCC(=O)NC1=O)C2=O (stereo not shown) [Compound 7] | –
– | 0.182 | Cc1sc2c(c1C)C(c1ccc(Cl)cc1)=N[C@@H](CC(=O)N1CCN(c3cccc4c3C(=O)N(C3CCC(=O)NC3=O)C4=O)CC1)c1nnc(C)n1-2 (stereo partly drawn) [Compound 15, 4-(4-(2-((6S)-4-(4-Chlorophenyl)-2,3,9-trimethyl-6H-thieno[3,2-f][1,2,4]triazolo[4,3-a][1,4]diazepin-6-yl)acetyl)piperazin-1-yl)-2-(2,6-dioxopiperidin-3-yl)isoindoline-1,3-dione] | –
– | – | Cc1sc2c(c1C)C(c1ccc(Cl)cc1)=N[C@@H](CC(=O)NCCCNc1cccc3c1C(=O)N(C1CCC(=O)NC1=O)C3=O)c1nnc(C)n1-2 (stereo partly drawn) [Compound 13, 2-((6S)-4-(4-Chlorophenyl)-2,3,9-trimethyl-6H-thieno[3,2-f][1,2,4]triazolo[4,3-a][1,4]diazepin-6-yl)-N-(3-((2-(2,6-dioxopiperidin-3-yl)-1,3-dioxoisoindolin-4-yl)amino)propyl)acetamide] | fraction unbound at 4 h, 0.1 μM ([5]; tissue homogenate): 0.228
< 0.5 | 0.411 | Cc1sc2c(c1C)C(c1ccc(Cl)cc1)=N[C@@H](CC(=O)NCCCCNC(=O)COc1cccc3c1C(=O)N(C1CCC(=O)NC1=O)C3=O)c1nnc(C)n1-2 (stereo partly shown) [Compound 9] | cell homogenate binding (bound-to-unbound concentration ratio) compared with matched compound [1]: higher cell homogenate binding than 16
– | 0.007 | Cc1sc2c(c1C)C(c1ccc(Cl)cc1)=N[C@@H](CC(=O)NC[C@@H]1CCC[C@H](CNc3cccc4c3C(=O)N(C3CCC(=O)NC3=O)C4=O)C1)c1nnc(C)n1-2 (mixture of isomers) [Compound 12, 2-((6S)-4-(4-Chlorophenyl)-2,3,9-trimethyl-6H-thieno[3,2-f][1,2,4]triazolo[4,3-a][1,4]diazepin-6-yl)-N-(((1RS,3SR)-3-(((2-(2,6-dioxopiperidin-3-yl)-1,3-dioxoisoindolin-4-yl)amino)methyl)cyclohexyl)methyl)acetamide] | –
– | 0.5 | Cc1sc2c(c1C)C(c1ccc(Cl)cc1)=N[C@@H](CC(=O)NCCOCCNC(=O)COc1cccc3c1C(=O)N(C1CCC(=O)NC1=O)C3=O)c1nnc(C)n1-2 (stereo partly drawn) [Compound 16, 2-((6S)-4-(4-Chlorophenyl)-2,3,9-trimethyl-6H-thieno[3,2-f][1,2,4]triazolo[4,3-a][1,4]diazepin-6-yl)-N-(2-(2-(2-((2-(2,6-dioxopiperidin-3-yl)-1,3-dioxoisoindolin-4-yl)oxy)acetamido)ethoxy)ethyl)acetamide] | –
> 10 | 0.133 | Cc1sc2c(c1C)C(c1ccc(Cl)cc1)=N[C@@H](CC(=O)NCCCCCCCCNC(=O)COc1cccc3c1C(=O)N(C1CCC(=O)NC1=O)C3=O)c1nnc(C)n1-2 (stereo partly shown) [Compound 8] | cell homogenate binding (bound-to-unbound concentration ratio) compared with matched compound [1]: higher experimental binding than 14; fold higher bound-to-unbound concentration ratio than compound 9 ([1]; HEK293 cell homogenate): 4.6 fold

SMILES | Papp A→B at 120 min, 10 μM [3] [×10⁻⁶ cm/s] | fraction unbound at 4 h, 0.1 μM ([5]; HEK293 cell homogenate) | further results
Cc1ncsc1-c1ccc(CNC(=O)[C@@H]2C[C@@H](O)CN2C(=O)[C@@H](NC(=O)COCCCCOc2ccc(-c3ccc(N4C(=S)N(c5ccc(C#N)c(C(F)(F)F)c5)C(=O)C4(C)C)cc3)cc2)C(C)(C)C)cc1 [Compound 2] | < 0.5 | – | fu,hom mass balance ([1]; HEK293 cell homogenate): 109%; fraction unbound at 4 h, 0.1 μM [2]: 0.016; Papp Recovery (%) (0-120 min) [4]: 87%
